Reference: patent publication US20060276440A1, “Treatment of inflammatory disorders” (priority 2005, published 2006)
Entries after “also recorded” stand apart in the source; their conditions may differ.

Columns and labels:
Format in all cases: cell-based, human
MMP-13 = test: IL-1/OSM-stimulated pro-MMP-13 production in SW-1353 cells (ELISA); settings: Homo sapiens, SW1353; SW-1353; IL-1/OSM-stimulated; secondary screen (Example 2); read-out: IC50, inhibition of MMP-13 (pro-MMP-13) production
Source text: To test the compounds identified in the preliminary reporter (luciferase) activity […]® line 4A1 screen for inhibition of OSM signaling in a more physiologically relevant environment, a human cell line involved in an inflammatory disease was adapted. The human cartilage cell line SW-1353 was selected.
In the human cartilage cell line SW-1353, while IL-1 is believed to activate expression of collagenases to a small degree and OSM is believed to have no effect on collagenase expression, a combination of IL-1 and OSM is believed to lead to a synergistic activation of collagenases to much higher levels (S. Cowell et al., Biochem J 331 (Pt 2), 453 (Apr. 15, 1998). Regulation of MMP-13 in SW-1353 cells is, therefore, believed to provide a biomarker which can be used to monitor IL-1/OSM-mediated signal transduction events in secondary assays.
(§1) The same supernatants of culture media used in the primary screen were assayed for IL-1/OSM-stimulated pro-MMP-13 production and MMP-2 production by enzyme-linked immunosorbent assay (ELISA).
(§2) For matrix metalloproteinase (MMP) measures, SW1353 cells were grown to confluence in 24 well plates, washed in DMEM (with Ham's F12) and placed in 500 ul of serum free DMEM/F-12 with 0.2% lactalbumin hydrosylate with and without OsM/IL-1. After 24 hrs, supernatants were collected and the amounts of proMMP13, totalMMP2, and proMMP1 were measured using Quantikine® ELISA kit for human MMPs (R & D systems, Minneapolis, Minn.). All MMP measures were normalized to viable cell numbers based on a tetrazolium (MTS) colorimetric measure (Promega, Madison, Wis.).

OSM signaling = test: […] 4A1 cell line (A549) OSM-stimulated luciferase reporter assay; settings: Homo sapiens, A549; 4A1 cell line; primary screen (Table 1); read-out: IC50, inhibition of OSM-stimulated (luciferase) reporter activity
Description: Cell line 4A1 was established in A549 cells (a human lung cancer cell line) using BV32, a vector that carries both the luciferase and GFP reporters. Assay development was performed to optimize the conditions of the OSM-response in the 4A1 […]® line.
Reporter activities of Sentinel® clones were measured using the Steady-Glo® Luciferase assay system (Promega, Madison, Wis.), according to the manufacturer's instructions, and were normalized to cell numbers based on nucleic acid quantification (CyQuant® cell proliferations assay, Molecular Probes/Invitrogen, Carlsbad, Calif.). In order to identify potential anti-inflammatory compounds, the OSM-responding Sentinel® clone 4A1 was used for a library screen of approximately 1800 compounds.

MMP-2 = MMP-2 production in SW1353 cells (ELISA, control); settings: SW-1353; FIG. 5
Description: MMP-2 production can be used as control for the potential side-effects of compounds. This is because MMP-2 levels are not believed to change in response to IL-1/OSM.
as §1, §2
(§3) Multiple control assays were performed to investigate the selectivity of CA4 action. Matrix metalloproteinase-2 (MMP-2) production in SW1353 cells was tested. Mutation of MMP-2 causes a multicentric osteolysis and arthritis syndrome (Martignetti et al., Nat Genet 28, 261-265 (2001) the entire contents of which are incorporated herein by reference), and theoretically its expression should not be affected in treating RA. CA4 at approximately 110 nM had no effect on production of MMP-2 (FIG. 12E). An A549 Sentinel line that responded to TGF-β was then tested.

TGF-β = test: A549 Sentinel line TGF-β-stimulated reporter activity; settings: inhibitor of TGF-β receptor, control
Description: as §3

Structure (SMILES)	IC50 (MMP-13) [nM]	IC50 (OSM signaling) [nM]	inhibitory effect on MMP-13 expression compared to MMP-2 expression (MMP-2)	effect on TGF-β-induced reporter activity (TGF-β)
CCc1oc2ccccc2c1C(=O)c1cc(Br)c(O)c(Br)c1 [Benzobromarone (8), (3,5-dibromo-4-hydroxyphenyl)(2-ethylbenzofuran-3-yl)methanone]	400	2200	greater inhibitory effects on MMP-13 expression compared to MMP-2 expression; also recorded: preferentially inhibit MMP-13 expression compared to MMP-2 expression	
NC(=O)c1ccc(-c2nc(-c3ccc4c(c3)OCO4)c(-c3ccccn3)[nH]2)cc1 [SB431542, reference compound]				able to inhibit
CC(C)C1=CC2=CCC3[C@](C)(C(=O)O)CCC[C@@]3(C)[C@@H]2CC1 (stereo in doubt) [Abietic acid (2), abietic acid]	6	12	greater inhibitory effects on MMP-13 expression compared to MMP-2 expression; also recorded: preferentially inhibit MMP-13 expression compared to MMP-2 expression	
C=C(C)[C@H]1CC[C@@]2(C(=O)O)CC[C@@]3(C)[C@@H](CC[C@H]4[C@]5(C)CC[C@@H](O)C(C)(C)[C@H]5CC[C@@]43C)[C@H]12 (stereo in doubt) [Betulinic acid (9), betulinic acid]	600	3300	greater inhibitory effects on MMP-13 expression compared to MMP-2 expression; also recorded: preferentially inhibit MMP-13 expression compared to MMP-2 expression	
